How the values were obtained:
[1] = test system: carrageenan-sensitized inflammatory model of rat; assay: Carrageenan-sensitized thermal hyperalgesia (Hargreaves test); assay type: in vivo; conditions: 50 mg/kg oral; for PWL (thermal paw withdrawal latency), carrageenan paw: mean ± SEM
Experimental: In this experiment, animals were habituated to the test environment for 2 days. Each rat was individually placed on a transparent perplex glass floor, covered with a plastic box (10×10×18 cm), and allowed 0.5-1 hr to habituate. After the acclimation period, basal thermal withdrawal latency (PWL, time interval between heat stimulation and paw withdrawal) was measured by exposing the plantar surface of a rats hind paw to a beam of radiant heat generated from a focused projection bulb through a transparent perplex glass surface (Hargreaves test; Hargreaves, K. R., Dubner, R., Brown, F., Flores, C. & Joris, J.: A new and sensitive method for measuring thermal nociception in cutaneous hyperalgesia. Pain, 32: 77-88, 1988). The PWL was averaged from at least two trials separated by a 2 min interval. A timer was used to measure the withdrawal latency and a cut of time of 20-sec was used to prevent tissue damage. Before the test on STZ-diabetic rats, the intensity of the radiating heat was adjusted to the level that caused naive animal to withdraw its paw at around 10 seconds.
After a stable basal PWL was obtained, the animals were briefly anesthetized with isoflurane (2-5% to effect). One side of their hind paws received an intraplantar injection of lambda carrageenan (2 mg in 100 microliter sterile saline, Sigma, St. Louis, Mo.). The contralateral side received no injection and served as an intra-subject control. The animals were then returned to their home cages and transferred to the individual testing chambers for heat thermal hyperalgesic testing, 2.5 hr after carrageenan injection. 3-hr post-carrageenan injection, PWLs of both hind paws (i.e., ipsilateral and contralateral) were measured at several time points post-carrageenan injection (15-min to 24-hr).
For compound testing, rats were randomly enrolled into groups that, immediately after the 3-hr post-carrageenan PWL was obtained, received oral dosing of Compound 62 (50 mg/kg), Compound 63 (50 mg/kg), vehicle (1 ml/kg), or indomethacin (30 mg/kg). Compound 62 and Compound 63 were prepared as a suspension in vehicle (96% of 0.5% CMC and 4% of 10% Tween 80) while indomethacin was prepared as a 30 mg/ml in normal saline.

STZ-diabetic rats = assay: Diabetic neuropathy, mechanical hyperalgesia (paw-withdrawal reflex test, Basile Analgesymeter); assay type: in vivo, Sprague Dawley (SD) rats; conditions: p.o., bid; for PWT (paw-withdrawal threshold), mechanical hyperalgesia: STZ-diabetic rats, mean ± SEM
Text: In this example, the ability of Compound 62 to produce beneficial effects in protecting against and/or reversing the pathology of neuropathy in a streptozotocin (STZ)-induced rat model of diabetes. To evaluate if chronic treatment with Compound 62 protects the diabetic animals from developing neuropathy, they were examined for mechanical hyperalgesia responses.
Adult male Sprague Dawley (SD) rats weighing 250-300 gm (Charles River Laboratories, San Diego, Calif.) were used. The animal room was lighted artificially at a 12-hr light-dark cycle (from 7:00 A.M. to 7:00 P.M.) with water and food supply ad libitum. Animals were allocated randomly into groups. Forty-nine (49) days prior to the behavioral tests, rats received a bolus injection of STZ (75 mg/kg, i.v.). STZ was dissolved in 0.1 M sodium citrate buffer, pH 4.5 solution, at the concentration of 75 mg/ml. To ensure the development of hyperglycemia, their non-fasted levels of glucose in whole blood, obtained via tail veins, were evaluated, using a glocometer (Accucheck®, Roche Diagnostics, Palo Alto, Calif.), once a week. Animals failing to show hyperglycemic conditions (i.e., whole blood glucose>120 mg/dL) were removed from the study. Diabetic rats were treated orally with Compound 62 (5 mg/kg or 25 mg/kg, both bid) or vehicle (1 ml/kg, bid), starting the date of STZ-injection. Compound 62 was dissolved in vehicle, which is composed of 96% of 0.5% CMC and 4% of 10% Tween 80. As a control, a group of naive rats received oral Compound 62 (25 mg/kg, bid) or vehicle (1 ml/kg, bid) treatment. Each group had >12 rats. Time-effect curves of the STZ diabetic rats (Compound 62 vs. Vehicle) were compared with each other, while curves of the naive rats (Compound 62 vs. Vehicle) were compared with each other. The comparisons were conducted, using two-way (group×time) repeated measures analysis of variance (ANOVA) followed by Fishers post-hoc test. A probability value of p<0.05 was considered as statistically significant.
Before the experiments, these rats were trained in the paw-withdrawal reflex test, using a Basile Analgesymeter (Ugo Basile, Biological Research Apparatus, Comerio VA, Italy), which applies a linearly increasing mechanical force to the dorsum of the rats hind paw. The training of mechanical nociceptive flexion reflex response was performed on lightly restrained rats, at 5-min intervals for 1 hr each day for a period of 5 days. On the day of the experiment, paw-withdrawal thresholds (PWT) (i.e., mechanical force that causes the animal to withdraw its paw from the stimulus) were measured at 5-min intervals for 1 hr. The mean was obtained from the average of the last 6 PWT readings. […]

[2] = post-dosing time 0 min (3 hr post-carrageenan)

Row | SMILES | effect on carrageenan-sensitized heat hyperalgesia compared to vehicle-treated carrageenan-paw (in words) [1] | PWL (thermal paw withdrawal latency), carrageenan paw [1, 2] | PWL (thermal paw withdrawal latency), carrageenan paw ([1]; post-dosing time 15 min) | PWL (thermal paw withdrawal latency), carrageenan paw ([1]; post-dosing time 60 min) | PWL (thermal paw withdrawal latency), carrageenan paw ([1]; post-dosing time 180 min) | PWL (thermal paw withdrawal latency), carrageenan paw ([1]; post-dosing time 1400 min) | PWL (thermal paw withdrawal latency), carrageenan paw ([1]; post-dosing time 120 min) | PWL (thermal paw withdrawal latency), carrageenan paw ([1]; post-dosing time 240 min) | significantly reversed mechanical hyperalgesia compared with vehicle-treated STZ-diabetic rats (in words) (STZ-diabetic rats; 5 mg/kg, x49 d) | reversal of mechanical hyperalgesia compared with vehicle-treated STZ-diabetic rats (in words) (STZ-diabetic rats; 25 mg/kg, x49 d) | PWT (paw-withdrawal threshold), mechanical hyperalgesia (STZ-diabetic rats; 5 mg/kg, x49 d (low dose, 62L)) | PWT (paw-withdrawal threshold), mechanical hyperalgesia (STZ-diabetic rats; 25 mg/kg, x49 d (high dose, 62H))
1 | CC(C)(C)/[N+]([O-])=C/c1ccc(S(C)(=O)=O)cc1S(C)(=O)=O [Compound 63, N-tert-Butyl-C-(2,4-bis-methanesulfonylphenyl)nitrone] | statistically significant effect | 4.98 ± 0.85 s | 4.93 ± 1.22 s | 4.15 ± 1.04 s | 3.65 ± 0.64 s | 5.70 ± 0.71 s | – | – | – | – | – | –
2 | CC(C)(C)/[N+]([O-])=C/c1ccc(S(C)(=O)=O)cc1 [Compound 62, N-tert-Butyl-C-[4-(methanesulfonyl)phenyl]nitrone] | statistically significant effect | 4.65 ± 0.63 s | 7.33 ± 1.43 s | – | – | 5.33 ± 1.09 s | 7.55 ± 1.08 s | 5.38 ± 1.11 s | not | significantly reversed mechanical hyperalgesia | 70.29 ± 3.18 GRAMS | 86.86 ± 4.79 GRAMS

— US20100168112A1, “2-Substituted and 4-substituted aryl nitrone compounds” (RENOVIS, INC., priority 2004, published 2010)
